ChEMBL document CHEMBL1138384, “Rational design of a nonpeptide general chemical scaffold for reversible inhibition of PDZ domain interactions” (Bioorg Med Chem Lett, 2007)
Activity calls are given as the source filed them. No cut-off for these calls is given here.

Assays:
[1] = Solubility in water; assay type: physicochemical
HEK293 = experiment: Inhibition of receptor recycling in HEK293 cells assessed as reduction of adrenergic beta-2 receptor expression; assay type: functional, cell-based; conditions: Homo sapiens
HCT-116 = experiment: Effect on HCT116 cells expressing wild-type PTEN assessed as 2-fold increase in PKB activity at 50 uM; assay type: functional, cell-based; conditions: Homo sapiens
Homo sapiens [2] = species: Homo sapiens; experiment: Displacement of peptide probe from MAGI3 PDZ2 domain by fluorescent polarization method
[3] = biological target: Cystic fibrosis transmembrane conductance regulator (Homo sapiens) (UniProt P13569); experiment: Inhibition of […]-mediated chloride transport in human bronchial epithelial cells by voltage clamp method; assay type: cell-based; conditions: Epithelial cell
Homo sapiens [4] = species: Homo sapiens; experiment: Inhibition of MAGI3-PTEN interaction assessed as activation of PKB at 5 uM
Homo sapiens [5] = species: Homo sapiens; experiment: Inhibition of MAGI3-PTEN interaction at 10 uM

Cystic fibrosis transmembrane conductance regulator (Homo sapiens), sequence (P13569 whole entry, looked up): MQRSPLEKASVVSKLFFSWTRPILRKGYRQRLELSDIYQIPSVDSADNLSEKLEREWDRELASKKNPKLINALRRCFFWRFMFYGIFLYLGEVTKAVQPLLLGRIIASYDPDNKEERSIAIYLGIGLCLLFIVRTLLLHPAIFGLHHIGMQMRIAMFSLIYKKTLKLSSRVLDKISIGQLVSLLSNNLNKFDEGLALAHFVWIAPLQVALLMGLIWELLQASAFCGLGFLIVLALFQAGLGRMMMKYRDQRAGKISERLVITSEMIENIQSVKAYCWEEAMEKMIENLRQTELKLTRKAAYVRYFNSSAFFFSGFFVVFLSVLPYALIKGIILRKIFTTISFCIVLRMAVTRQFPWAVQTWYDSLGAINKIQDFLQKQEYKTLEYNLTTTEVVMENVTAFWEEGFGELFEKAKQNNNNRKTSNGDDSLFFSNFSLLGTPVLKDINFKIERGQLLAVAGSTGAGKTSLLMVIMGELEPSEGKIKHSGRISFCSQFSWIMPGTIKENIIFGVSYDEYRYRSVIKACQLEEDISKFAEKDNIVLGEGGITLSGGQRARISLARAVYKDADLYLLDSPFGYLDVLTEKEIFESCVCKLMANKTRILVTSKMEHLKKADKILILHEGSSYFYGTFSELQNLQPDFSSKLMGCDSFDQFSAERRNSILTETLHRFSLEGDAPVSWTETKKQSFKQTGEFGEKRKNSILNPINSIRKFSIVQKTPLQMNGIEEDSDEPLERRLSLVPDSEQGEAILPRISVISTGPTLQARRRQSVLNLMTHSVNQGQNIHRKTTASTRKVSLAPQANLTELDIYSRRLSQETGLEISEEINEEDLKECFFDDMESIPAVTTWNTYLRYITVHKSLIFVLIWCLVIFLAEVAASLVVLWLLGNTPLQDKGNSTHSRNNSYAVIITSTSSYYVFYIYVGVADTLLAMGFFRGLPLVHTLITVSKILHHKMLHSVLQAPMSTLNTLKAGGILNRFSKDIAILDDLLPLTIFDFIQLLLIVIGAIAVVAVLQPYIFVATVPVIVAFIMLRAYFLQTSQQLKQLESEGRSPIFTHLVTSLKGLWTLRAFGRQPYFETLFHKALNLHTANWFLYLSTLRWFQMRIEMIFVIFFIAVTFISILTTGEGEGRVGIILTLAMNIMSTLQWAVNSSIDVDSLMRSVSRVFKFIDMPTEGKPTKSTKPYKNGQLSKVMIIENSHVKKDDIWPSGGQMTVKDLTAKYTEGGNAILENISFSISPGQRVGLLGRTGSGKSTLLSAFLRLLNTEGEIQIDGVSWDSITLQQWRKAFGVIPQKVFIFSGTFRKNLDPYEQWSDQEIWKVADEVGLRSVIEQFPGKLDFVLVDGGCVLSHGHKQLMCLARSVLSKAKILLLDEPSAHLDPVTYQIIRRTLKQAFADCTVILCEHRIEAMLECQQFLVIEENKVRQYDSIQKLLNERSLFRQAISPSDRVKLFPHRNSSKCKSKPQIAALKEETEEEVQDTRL

Structure (SMILES)	solubility [1] [mM]	Activity (HEK293)	Activity (HCT-116)	Activity (Homo sapiens [2])	Activity [3]	Activity (Homo sapiens [4])	inhibition (Homo sapiens [5]) [%]
CCCCC(O)c1cc2cc(C)c(C(=O)[O-])cc2n1CCc1ccccc1.[Na+] (configuration not stated)	> 30	Dose-dependent effect	Active	Active	Dose-dependent effect	–	–
CCCCCc1c(CO)c2cc(C)c(C(=O)O)cc2n1CCc1ccccc1	–	–	–	–	–	Active	50
